Test results reported in patent US20260158102A1, “CYCLIC PEPTIDE DERIVATIVE COMPOSITION FOR TREATING OR PREVENTING NEUROPATHIC PAIN AND/OR INFLAMMATORY PAIN” (DKS Co. Ltd., priority 2022, published 2026).

Tested on: rat carrageenan-induced paw edema model
Assay: Mechanical hyperalgesia (Randall-Selitto pain threshold) in rat carrageenan-induced paw edema model
Assay type: in vivo
Conditions: for Pain threshold (mmHg) 2 hour: 2 hours after carrageenan inflammation, control 31.6 ± 1.4
Method: On the day before the administration of the phlogistic agent, the pain threshold of each individual by the Randall-Selitto method was measured using an Analgesy meter.
On the day before the use of the phlogistic agent, a required amount of carrageenan (Tokyo Chemical Industry Co., Ltd.) was weighed, ground using an agate mortar and pestle, and suspended while adding physiological saline little by little, thereby preparing a 1 w/v % carrageenan physiological saline solution. After preparation, the solution was stored in a refrigerator and used the next day.
The test substance was intravenously administered, and after 5 minutes, 0.1 mL of a phlogistic agent (1 w/v % carrageenan physiological saline solution) was subcutaneously administered to the right hind paw of the animal to induce inflammation.
2, 3, 4, and 5 hours after inflammation, the pain threshold was measured by the Randall-Selitto method using an Analgesy meter.
Dunnett's multiple comparison test was performed between the control group and the test substance group at each measurement time point.

Question: Which “Pain threshold (mmHg) 2 hour” value (1 mg/kg i.v., mean ± SE, N=7) does the source give for `CC[C@@]1(C)Oc2cc(ccc2O)C[C@H](N(C)C)C(=O)N[C@@H](C(C)C)C(=O)N[C@@H]1C(=O)N[C@@H](CCC(=O)O)C(=O)O` [Compound 23] here?
Answer: Its value is 31.6 ± 2.2 mmHg.

Question: What about the “Pain threshold (mmHg) 4 hour” value (1 mg/kg i.v., 4 hours after carrageenan inflammation, mean ± SE, N=7, control 30.3 ± 0.7) of the same molecule?
Answer: The value was 34.0 ± 1.3 mmHg.

Question: And the “Pain threshold (mmHg) 5 hour” value (1 mg/kg i.v., 5 hours after carrageenan inflammation, mean ± SE, N=7, control 28.3 ± 1.9)?
Answer: Its value is 30.1 ± 1.0 mmHg.

Question: And the “Pain threshold (mmHg) 2 hour” value (5 mg/kg i.v., mean ± SE, N=7)?
Answer: Its value is 34.9 ± 1.7 mmHg.

Question: And the “Pain threshold (mmHg) 2 hour” value (25 mg/kg i.v., mean ± SE, N=7)?
Answer: Its value is 36.7 ± 2.4 mmHg.

Question: And the “Effect on inflammatory pain (pain threshold by the Randall-Selitto method)” value (rat carrageenan-induced paw edema model, i.v. 1-25 mg/kg, overall conclusion)?
Answer: The value was “suppressing effect on inflammatory pain”.
